Data taken from paper PMC8342802, “A Novel Bacteriocin From Lactobacillus Pentosus ZFM94 and Its Antibacterial Mode of Action” (Frontiers in Nutrition, 2021).
Where no end group is shown, it is not given here. [ ]: non-standard residue; d: D form. Abu = CC[C@H](N)C(=O)O; Dhb = C/C=C(\N)C(=O)O; Dha = C=C(N)C(=O)O

Assays:
[1] = binding to lipid II, agar well-diffusion after mixing with lipid II; assay type: cell-based, Micrococcus luteus; details: 10 μm peptide with 20 μm lipid II, 4°C for 1 h, indicator M. luteus 10209
Method: Studies have shown that lipid II was the target of nisin ([25]), and the combination of lipid II and nisin can mediate the formation of pores. Nisin and pentocin ZFM94 were mixed with lipid II, respectively. The final concentration of nisin or pentocin ZFM94 was 10 μm, while the concentration of lipid II was 20 μm. The mixture was maintained at 4°C for 1 h. The changes in the antibacterial activity were detected by the agar well-diffusion method. Micrococcus luteus 10209 was used as the indicator. Then, the size of the inhibition zone was observed.

[2] = cited from earlier work
Method: It retained 80.37% of its original antibacterial activity after heating at 80°C for 30 min. The antibacterial activity of pentocin ZFM94 was stable at pH 2–7. […] Pentocin ZFM94 was sensitive to trypsin and pepsin, but not to amylase, lysozyme, lipase, and ribonuclease A. Studies have reported that leuconocin S and carnocin 5 ...

nisin (I[Dhb]AI[Dha]LC[Abu]PGCK[Abu]GALMGCNMK[Abu]A[Abu]CHCSIHV[Dha]K; thioether (positions not given here); not fully specified (residues 7, 11, 19, 26, 28, bridges); also: lantibiotic: thioether bridges and dehydrated residues, places not given here; UniProt P13068 24-57, looked up)
antibacterial effect after mixing with lipid II [1]: disappeared
activity at pH close to 7 [2]: inactivated
